Source: patent US10668149B2, “Combination therapies for heme malignancies with anti-CD38 antibodies and survivin inhibitors” (Janssen Biotech, Inc., priority 2015, dated 2020)
Entries after “also recorded” stand apart in the source; their conditions may differ.

Tests used:
RPMI-8226 cells = assay: Compartment-specific BLI-based ADCC cytotoxicity assay, RPMI-8226; format: cell-based, human; details: 4 hours; for lysis of cells: daratumumab 0.3 μg/ml, YM155 1 nM, PBMC effector:target 40:1
Description: (§1) hBMSC were plated at a density of 1×10^4 cells/well in white opaque flat-bottomed 96-well plates (Costar) in 100 μl culture medium. After an adherence period of six hours, luc-transduced MM cell lines were added at a density of 1×10^4 cells/well in BMSC-coated or uncoated wells. In experiments in which YM155 was tested, YM155 was added at indicated concentrations together with MM cells. After 16-20 hours, daratumumab was added at indicated concentrations and left for 15 minutes at room temperature. Freshly isolated PBMC from healthy individuals were then added as effector cells at the indicated effector target ratios. 4 hours after addition of PBMC, 125 μg/ml beetle luciferin (Promega) was added and the bioluminescent signal emitted from surviving MM cells was determined within 20 minutes using a luminometer (SpectraMax, Molecular Devices). The percentage survival of MM cells was calculated using the formula: % survival=(mean bioluminescent signal in the absence of PBMCs/mean bioluminescent signal in the presence of PBMCs)×100%. In these assays the survival of MM cells is a direct reflection of ADCC mediated lysis and correlates with classical chromium release assays as described in McMillin et al., Nat Med 16:483-489, 2010.
Induction of ADCC by healthy donor BMSCs against two CD38^+ luciferase transduced MM cell lines, UM9 and RPMI was tested with serial concentrations of daratumumab in the presence or absence of HD-PBMCs as effector cells in compartment-specific BLI-based cytotoxicity assays.
In the assays, daratumumab and YM155 were used at a concentration of 0.3 μg/ml and 1 nM, respectively, for RPMI-8226 cells and at a concentration of 1 μg/ml and 120 nM for MM patient samples, respectively. Healthy donor PBMCs were used as effector cells at effector:target cell ratio of 40:1 for RPMI-8226 cells and 30:1 for MM patient samples.

MM cells (CD138+ cells) = assay: Viability of MM cells in BM-MNCs cultured with YM155 by FACS; format: cell-based, human; details: BM-MNCs of MM patients; different doses of YM155; 24 hours
Description: Effect of YM155 on NK cell viability was evaluated first. BM-MNCs of MM patients were cultured in the presence of different doses of YM155 for 24 hours. Viability of MM cells (CD138^+ cells) and NK cells (CD3^−CD138^−CD56^+ cells) were determined by FACS.

[1] = test system: NK cells (CD3−CD138−CD56+ cells); assay: Effect of YM155 on NK cell viability by FACS; format: cell-based, human; details: 24 hours
Description: FIG. 3. […] HD-PBMCs and patient bone marrow mononuclear cells (BMMNCs) were incubated with the indicated concentrations of YM155 for 24 hours. The number of viable CD3^−CD56^+ NK cells was determined by flow cytometry and the percent lysis was calculated using the untreated samples as negative control. Effect of YM155 on NK cell viability was evaluated first. BM-MNCs of MM patients were cultured in the presence of different doses of YM155 for 24 hours. Viability of MM cells (CD138^+ cells) and NK cells (CD3^−CD138^−CD56^+ cells) were determined by FACS.

MM cell line UM9 = assay: In vivo tumor targeting, UM9 in humanized BM-like scaffolds; set-up: species or system RAG2−/−γc−/− mice; details: UM9 scaffolds s.c.; YM155 1 mg/kg/d for 10 days by s.c. infusion pump; T cell-depleted HD-PBMCs given
Text: FIG. 5. Antitumor effect of daratumumab and YM155 combination therapy. Analysis of tumor load per treatment group in RAG2^−/−γc^−− mice implanted with UM9 cells. Hybrid scaffolds coated with human MSCs and loaded with luciferase transduced MM cell line UM9 were implanted subcutaneously in the back of RAG2^−/−γc^−− mice (4 scaffolds per mice). Ten days after implantation, the growing tumors were visualized and quantified by BLI. Different groups of mice (n=4) were then either treated with vehicle control (control) or treated with daratumumab, YM155 or daratumumab plus YM155 as indicated. […] Mice were monitored weekly by BLI. Results are expressed as the mean tumor load in each scaffold. […] The statistical differences between mice treated with daratumumab and mice treated with daratumumab plus YM155 were calculated using the Mann-Whitney U-test. […]
The in vivo relevance of the combination of daratumumab with YM155 was tested in the preclinical xenograft model in RAG2^−/−gc^−/− mice, in which MM tumors were grown in a humanized BM-like niche created by subcutaneous implantation of ceramic scaffolds coated with human BMSCs. […] Ten days after implantation, the growing tumors were visualized and quantified by BLI. […] Mice were monitored weekly by BLI. […] Statistical differences between mice treated with daratumumab and mice treated with daratumumab plus YM155 were calculated using the Mann-Whitney U-test.

UM9 MM cells = assay: Compartment-specific BLI-based ADCC cytotoxicity assay, UM9; format: cell-based, human; details: serial concentrations, PBMC:MM 30:1, 4 hours
Description: as §1, with “2010. […]” for “2010.”

primary CD138+ MM cells = assay: FACS based ADCC assay in Multiple Myeloma BM-MNC; format: cell-based, human; details: presence of autologous MM-BMSCs; both donors; 24 hours
Description: Frozen BM-MNCs from MM patients with 15-35% CD138^+ MM cells were used in FACS-based ADCC assays. The cells were thawed and cultured in 10% HS in RPMI. After 16-20 h, BM-MNCs were counted by trypan blue exclusion and 4×10^4 cells/well were plated in 96 round bottom plates. Daratumumab and/or YM155 were added in the wells as indicated per experiment. After 24 hours, cells were stained with fluorescent conjugated anti-CD138, anti-CD38, anti-CD56 and anti-CD3 antibodies and the survival of primary CD138^+ MM cells in the BM-MNCs was determined by FACS as previously described (Groen et al., Blood 120:e9-e16, 2012). Percentage lysis of MM cells was deduced using the following formula: % lysis cells=1−(counts of surviving CD138^+ cells in treated wells/counts of number of surviving CD138^+ cells in control wells)×100%.
Ability of BMSCs to protect primary MM cells from daratumumab-induced ADCC was also evaluated in a FACS-based ADCC assay using methodology described above. In the assays, BM-MNCs containing at least 15% CD138^+ malignant plasma cells and sufficient numbers of autologous effector NK cells were incubated with daratumumab to induce ADCC. The BM-MNCs were tested either alone or in co-culture with autologous BMSCs to evaluate the effect of BMSCs. FACS-based viability assay was performed after 24 hours of culture to determine CD138^+ surviving cells and calculate lysis. […]

Row | Compound | lysis of cells (RPMI-8226 cells; absence of BMSCs) | lysis of cells (RPMI-8226 cells; presence of BMSCs) | viability of MM cells (CD138+ cells) (MM cells (CD138+ cells)) | viability of NK cells ([1]; BM-MNCs of MM patients, different doses of YM155) | NK cell lysis ([1]; HD-PBMCs and patient BMMNCs, indicated concentrations of YM155) | tumor growth (BLI) (MM cell line UM9) | daratumumab-induced ADCC (RPMI-8226 cells; absence of BMSCs, serial concentrations, PBMC:MM 30:1) | sensitivity to daratumumab-induced ADCC (RPMI-8226 cells; presence of BMSCs, serial concentrations, PBMC:MM 30:1) | daratumumab-induced ADCC (UM9 MM cells; absence of BMSCs) | sensitivity to daratumumab-induced ADCC (UM9 MM cells; presence of BMSCs) | induction of ADCC of primary MM cells (primary CD138+ MM cells)
1 | COCCn1c2c([n+](Cc3cnccn3)c1C)C(=O)c1ccccc1C2=O [YM155, 4,9-Dihydro-1-(2-methoxyethyl)-2-methyl-4,9-dioxo-3-(2-pyrazinylmethyl)-1H-naphth[2,3-d]imidazolium bromide] | about 20% | no effect | some toxicity | not affected; also recorded: does not negatively interfere | does not induce NK cell lysis | more pronounced | – | – | – | – | –
2 | daratumumab: anti-CD38 antibody of IgG1/κ subtype, VH SEQ ID NO: 4 and VL SEQ ID NO: 5 | about 20% | about 10% | – | – | – | marginal effect | dose dependent fashion | less sensitive | dose dependent fashion | less sensitive | less efficient
